Measurements taken from article PMC9408991, “Antitumor Effects of a New Retinoate of the Fungal Cytotoxin Illudin M in Brain Tumor Models” (International Journal of Molecular Sciences, 2022).

Columns and labels:
[1] = test system: non-neural cancer cell lines; experiment: MTT assay, summary over non-neural cancer cell lines; assay type: cell-based, human; details: with the exception of MCF-7^+Topo
Procedure: (§1) Non-GBM cells (5 × 10^4 cells/mL, 100 µL/well) were grown in 96-well plates for 24 h. Then, they were treated with various concentrations of the test compounds or vehicle (DMSO, or EtOH) for 72 h at 37 °C. After the addition of 12.5 µL of a 0.5% MTT solution in PBS, the cells were incubated for 3 h at 37 °C so that the water-soluble MTT could be converted to formazan crystals. Then, the plates were centrifuged (300× g, 5 min, 4 °C), the medium withdrawn, and the formazan dissolved in 25 µL of DMSO containing 10% sodium dodecylsulfate (SDS) and 0.6% acetic acid for at least 2 h at 37 °C. In the case of the HL60 cells, after 2 h, the precipitate of formazan crystals was redissolved in a 10% solution of SDS in DMSO containing 0.6% acetic acid.

NE-4C neural stem cells = experiment: Neuronal differentiation of NE-4C neural stem cells (β-tubulin III staining); assay type: cell-based, mouse
Procedure: NE-4C cells and their differentiated progeny neurons can be immunohistochemically distinguished by the presence of β-tubulin III only in the latter (Figure 3).
Astroglia cells grown on poly-L-lysine-coated glass cover slips were fixed with 4% paraformaldehyde in PBS for 20 min at room temperature and then permeabilized with Triton X-100 (0.1% v/v in PBS; 5 min). Nonspecific antibodies were blocked by incubation with 3% FBS in PBS (room temperature, 1 h). α-GFAP antibody (rabbit, DAKO) was used in a dilution of 1:2000 and was visualized by anti-rabbit IgG Alexa 594 (1:1000). DAPI (4′,6-diamidino-2-phenylindole) was used for nuclei staining. Fluorescence images were captured manually on a Zeiss Axiovert 200 M microscope fitted with 20- to 60-fold zoom and a Zeiss AxioCam MRm digital camera. Further applied antibodies were tubulin III (Sigma T5076), used at a dilution of 1:1000, and Annexin V. Cy3.18 (Sigma A4963).

[2] = Reactivity test with glutathione (enone absorption); assay type: physicochemical; details: 200 µM compound, glutathione in PBS, 2 h, rt
Procedure: In a cell-free activity assay, the reaction of 1 and 2 with glutathione was measured by the decreasing absorption at 340 nm (enone group). Then, 2 µL of the substances (10 mM in DMSO) was mixed with 98 µL glutathione solution ([…] in PBS) in a 96-well plate. The absorption was measured at 340 nm every 30 s for 2 h at rt (Tecan F200). All experiments were performed at least four times.
Figure 1 Time-resolved measurement of the absorption at 340 nm (enone group) of 200 µM 1, 2 or solvent (DMSO) mixed with 6.5 mM glutathione in phosphate-buffered saline (PBS). Data are means ± SD of at least four independent measurements every 30 s.

[3] = Stability in cell medium (DMEM) by HPLC; assay type: physicochemical; details: for Detected compound 2 in medium / Detected free 1 in the sample of 2 / Detected free retinoic acid in the sample of 2: sample of 2 in DMEM
Procedure: The stability of compound 2 in medium (DMEM) was investigated for the indicated times (Table S1). For the preparation of the calibration samples, stock solutions of the test compounds (1 mg /mL) in MeCN were initially made. The sample was diluted to 0.2 mg/mL in a mixture of MeCN/H2O (4:1), whereof 20 µL were taken and injected into the column. For HPLC analysis, a Prontosil 120-5-C18 ace EPS 5 µm column was applied, and MeCN/H2O + 0.1 % glacial acetic acid was used as eluent. Chromatography was run from 7030 to 9010 within 3 […]
Table S1. Stability of compound 2 in medium.
Sample Detected Compounds (in µM)

embryonal neuronal cells = experiment: Long-term development of embryonal neuronal cell cultures; assay type: cell-based, mouse; details: 1 µM, 3, 6 or 8 days
Procedure: NE-4C cells derived from the anterior brain vesicles of p53-deficient 9-day-old mouse embryos were maintained in Minimum Essential Medium (MEM; Sigma Aldrich, Taufkirchen, Germany) supplemented with 5% fetal calf serum (FCS; Invitrogen-Gibco, Carlsbad, CA, USA), 4 mM glutamine (Sigma-Aldrich, Taufkirchen, Germany) and 40 ug/mL gentamycin (Chinoin, Budapest, Hungary). For maintenance, subconfluent cultures were regularly split by trypsinization (0.05 w/v% trypsin in PBS) into poly-L-lysine-coated Petri dishes. Primary astrocytes were isolated from whole brains of neonatal (P0-P3) mice, as described earlier. In brief, meninges were removed, and the tissue pieces were subjected to enzymatic dissociation, using 0.05% w/v trypsin and 0.05% w/v DNase for 10 min at room temperature. The cells were plated onto poly-L-lysine coated plastic surfaces and grown in MEM supplemented with 10% fetal calf serum, 4 mM glutamine and 40 ug/mL gentamycin. Primary neuronal cultures were prepared from embryonic (E15–E16) mouse (CD1) forebrains, as described earlier. In brief, cell suspensions were prepared by mechanical dissociation over a nylon mesh with a pore diameter of 40–42 μm. The cells were seeded at 10^5 cells/cm^2 density onto PLL-coated surfaces. The cultures were maintained in MEM supplemented with 5% FCS, 4 mM glutamine, 40 µg/mL gentamicin and 2.5 μg/mL amphotericin B (Sigma). […]

[4] = test system: brain-derived cells (NE-4C, neurons, astrocytes, C6, U87, U251, MZ-54); experiment: MTT assay, summary over brain-derived cells; assay type: cell-based; details: 48 h, read-out: IC50 (48 h) values, range over brain-derived cells
Procedure: as §1
Adherently grown GBM cells were seeded at 5 × 10^4 cells/mL and floating spheres at 8 × 10^4 cells/mL in 100 µL/well and incubated as above for 48 or 72 h at 37 °C. Afterward, 10 µL of a 5 mg/mL MTT solution in PBS was added to the cells for 3 h at 37 °C. Then, the spheres were centrifuged shortly to collect the cells on the bottom of the plate, and the medium was removed by careful pipetting for both adherently grown and floating sphere GBM cultures. […] The absorbance of formazan (λ = 570 nm), and background (λ = 630 nm) was measured with a microplate reader (Tecan Spark, Tecan Deutschland GmbH, Crailsheim, Germany).

| Compound | fold less efficacious than 1 [1] | differentiation of NE-4C stem cells to neurons (NE-4C neural stem cells; 10 nM, β-tubulin III staining) | neuronal differentiation of NE-4C neural stem cells (NE-4C neural stem cells; concentrations as high as 1 µM) | fading of the enone band in the presence of glutathione [2] | stability in cell medium ([3]; cell medium) | Detected compound 2 in medium ([3]; 0 h) | Detected free 1 in the sample of 2 ([3]; 0 h) | Detected free retinoic acid in the sample of 2 ([3]; 0 h) | Detected compound 2 in medium ([3]; 20 h) | Detected free 1 in the sample of 2 ([3]; 20 h) | Detected free retinoic acid in the sample of 2 ([3]; 20 h) | Detected compound 2 in medium ([3]; 48 h) | Detected free 1 in the sample of 2 ([3]; 48 h) | Detected free retinoic acid in the sample of 2 ([3]; 48 h) | Detected compound 2 in medium ([3]; 144 h) | Detected free 1 in the sample of 2 ([3]; 144 h) | Detected free retinoic acid in the sample of 2 ([3]; 144 h) | development of neuronal cells (embryonal neuronal cells) | IC50 [4] |
| --- | --- | --- | --- | --- | --- | --- | --- | --- | --- | --- | --- | --- | --- | --- | --- | --- | --- | --- | --- |
| CC1=C(/C=C/C(C)=C/C=C/C(C)=C/C(=O)O[C@@H]2C3=C(C)C4(CC4)[C@@](C)(O)C(=O)C3=CC2(C)C)C(C)(C)CCC1 [Compound 2, illudin M retinoate] | 100 fold | did not elicit differentiation | did not induce neuronal differentiation | stabilization of conjugate 2 compared with 1 | high stability | 3.92 µM | < 0.01 µM | < 0.01 µM | 3.98 µM | < 0.01 µM | < 0.01 µM | 3.85 µM | < 0.01 µM | < 0.01 µM | 3.94 µM | < 0.01 µM | < 0.01 µM | developed normally |  |
| CC1=C2C(=CC(C)(C)[C@@H]2O)C(=O)[C@](C)(O)C12CC2 [Compound 1, illudin M] |  |  |  |  |  |  |  |  |  |  |  |  |  |  |  |  |  |  | 50 to 400 nM |
